The values that follow come from paper PMC3857843, “Multiple Transport-Active Binding Sites Are Available for a Single Substrate on Human P-Glycoprotein (ABCB1)” (PLoS ONE, 2013).

Common to all, as to experiment: Transport of fluorescent substrates in BacMam-transduced HeLa cells (flow cytometry)
(In flow cytometry, cells or beads pass a laser one at a time.)

One series concerns the target F343C mutant Pgp (Homo sapiens, UniProt P08183, C1074A/C1125A/C1227A/C137A/C431A/C717A/C956A/F343C). The settings on record: compared to cysless WT Pgp (taken as 100%), calcein-AM 0.5 µM 10 min, Rh123 […], other substrates 0.5 µM 45 min. Here is the method:
(§1) The BacMam-Pgp virus (encoding cysless WT and the mutant Pgps) was added to 2.5 million HeLa cells at a titer of 50-60 viral particles per cell in 3 ml of DMEM and incubated at 37°C [30]. After 1 hr DMEM was added to make a total of 20 ml in the flask and these infected cells were further incubated for 3-4 hrs. 10 mM butyric acid was then added and the cells continued to incubate at 37°C. After 24 hrs, the cells were trypsinized, washed, counted and analyzed by flow cytometry for cell surface expression and the function of the wildtype and mutant Pgps.
(§2) The transport function of cysless WT and mutant Pgps was determined using fluorescent compounds with flow cytometry as previously described. […] Cells were washed with cold PBS and resuspended in PBS containing 0.1% BSA before analysis.

The next series concerns the target Y307C/V982C mutant Pgp (Homo sapiens, UniProt P08183, C1074A/C1125A/C1227A/C137A/C431A/C717A/C956A/V982C/Y307C). Particulars: compared to cysless WT Pgp (taken as 100%), calcein-AM 0.5 µM 10 min, Rh123 […], other substrates 0.5 µM 45 min. The method, then: as §1, §2
Series [1] concerns the target Y307C/Q725C/V982C mutant Pgp (Homo sapiens, UniProt P08183, C1074A/C1125A/C1227A/C137A/C431A/C717A/C956A/Q725C/V982C/Y307C). Particulars: Y307/Q725C/V982C in HeLa cells; compared to cysless WT Pgp (taken as 100%); calcein-AM 0.5 µM 10 min, Rh123 […], other substrates 0.5 µM 45 min. The method, then:
as §1, §2

The next series concerns the target Y307C mutant Pgp (Homo sapiens, UniProt P08183, C1074A/C1125A/C1227A/C137A/C431A/C717A/C956A/Y307C). Particulars: compared to cysless WT Pgp (taken as 100%), calcein-AM 0.5 µM 10 min, Rh123 […], other substrates 0.5 µM 45 min. The method, then: as §1, §2
Another series addresses F343C/V982C mutant Pgp (Homo sapiens, UniProt P08183, C1074A/C1125A/C1227A/C137A/C431A/C717A/C956A/F343C/V982C). Particulars: compared to cysless WT Pgp (taken as 100%), calcein-AM 0.5 µM 10 min, Rh123 […], other substrates 0.5 µM 45 min. The method, then:
as §1, §2

A further series concerns the target Q725C mutant Pgp (Homo sapiens, UniProt P08183, C1074A/C1125A/C1227A/C137A/C431A/C717A/C956A/Q725C). Particulars: compared to cysless WT Pgp (taken as 100%), calcein-AM 0.5 µM 10 min, Rh123 […], other substrates 0.5 µM 45 min. The method, then:
as §1, §2

The target of a further series is F728C mutant Pgp (Homo sapiens, UniProt P08183, C1074A/C1125A/C1227A/C137A/C431A/C717A/C956A/F728C). The settings on record: compared to cysless WT Pgp (taken as 100%), calcein-AM 0.5 µM 10 min, Rh123 […], other substrates 0.5 µM 45 min. The method, then:
as §1, §2

The target of another series is Q725C/V982C mutant Pgp (Homo sapiens, UniProt P08183, C1074A/C1125A/C1227A/C137A/C431A/C717A/C956A/Q725C/V982C). The settings on record: compared to cysless WT Pgp (taken as 100%), calcein-AM 0.5 µM 10 min, Rh123 […], other substrates 0.5 µM 45 min. The method, then: as §1, §2
In a further series the target is F978C mutant Pgp (Homo sapiens, UniProt P08183, C1074A/C1125A/C1227A/C137A/C431A/C717A/C956A/F978C). The settings on record: compared to cysless WT Pgp (taken as 100%), calcein-AM 0.5 µM 10 min, Rh123 […], other substrates 0.5 µM 45 min. The method, then: as §1, §2
The target of a further series is F728C/V982C mutant Pgp (Homo sapiens, UniProt P08183, C1074A/C1125A/C1227A/C137A/C431A/C717A/C956A/F728C/V982C). The settings on record: compared to cysless WT Pgp (taken as 100%), calcein-AM 0.5 µM 10 min, Rh123 […], other substrates 0.5 µM 45 min. Here is the method:
as §1, §2

A further series addresses V982C mutant Pgp (Homo sapiens, UniProt P08183, C1074A/C1125A/C1227A/C137A/C431A/C717A/C956A/V982C). The settings on record: compared to cysless WT Pgp (taken as 100%), calcein-AM 0.5 µM 10 min, Rh123 […], other substrates 0.5 µM 45 min. Here is the method:
as §1, §2

With `CC(=O)OCOC(=O)CN(CC(=O)OCOC(C)=O)Cc1cc2c(cc1OC(C)=O)Oc1cc(OC(C)=O)c(CN(CC(=O)OCOC(C)=O)CC(=O)OCOC(C)=O)cc1C21OC(=O)c2ccccc21` [CalAM, calcein-AM], the Transport function (at F343C mutant Pgp; at Y307C/V982C mutant Pgp; in series [1]; on Y307C mutant Pgp; on F343C/V982C mutant Pgp; at Q725C mutant Pgp) was 90-100% each time. For the same compound, the Transport function on F728C mutant Pgp is given as 90-100%; on Q725C/V982C mutant Pgp, 90-100%; at F978C mutant Pgp, 90-100%; at F728C/V982C mutant Pgp it was 55-65%; at V982C mutant Pgp, 90-100%.
